Results: patent US20020137901A1, “Synthesis, and photodynamic therapy-mediated anti-cancer, and other uses of chlorin e6-transferrin” (priority 2001, published 2002)

Key:
[1] = system: MTLn3 cells; experiment: Cell killing assay, protocol B (serum-containing, one-day exposure); format: cell-based, rat
Experimental: (§1) FIG. 6. […] This was a one-day exposure, serum-containing assay performed using protocol B described in the cell killing section. Cells were plated in 24 well plates and grown to confluency. On day one, media was changed and increasing levels of Ce6-Tf were added to test wells to a final concentration from 7.5 to 30 ug/ml. Native Tf was added to control wells at 30 ug/ml. On day 2, media was changed to that without added Ce6-Tf or Tf. On days 2, 3, and 4, cells were exposed to light from an X-ray film box for 15 min. Media was changed each day. On day five, all cells were fixed, stained, and quantitated using the crystal violet stain assay. Stained cell numbers were evaluated using a Bio-Rad Multi-imager. Images of the stained plates are shown in A and B. The results of image analysis are shown in C and D, where ODU/mm2 correlates with cell number.
(§2) FIG. 8. A: Effect of Ce6 alone on the viability of Rat MTLn3 cells. Cells were tested as per method B outlined in the cell killing procedure description. Confluent cells in ∝MEM containing 5% FBS were exposed to the indicated concentrations of Ce6, Ce6-Tf, or Tf alone. One day later, media was changed to that without added Ce6-Tf or Tf, and all cells were exposed to light for 15 min. This was repeated on days two and three. Cells were then fixed and stained with Coomassie blue. An image of the stained wells is shown. […] B: Effect of excess Tf on the killing effect of Ce6-Tf Cells were set up similarly as above, except that treatments consisted of Ce6-Tf, or Ce6-Tf in conjunction with 500 or 1,000 μg/ml native Tf. Light exposure, media changes, and cell staining were carried out as in A. An image of the stained wells is shown.
(§3) B: Serum-containing, one day exposure assays. For these, serum was maintained, to emulate in vivo conditions where excess endogenous normal transferrin would be present. In addition, the Ce6-Tf exposure was limited to I day to emulate a one time Ce6-Tf injection. Target cells were grown to confluence in 24 well plates. On the day of the assay, media in all wells was replaced with 1 ml of fresh serum-containing media and increasing levels of Ce6-Tf added to test wells. Native human holo-Tf was added, at the highest Ce6-Tf dose, to control wells. One day after Tf addition, media in all plates was changed to normal culture media (without Ce6Tf).
With both assay methods, two plates for each line to be tested were plated and treated identically. One day after Ce6-Tf addition, test plates were exposed to the light from an X-ray film box for 15 min.: the box was placed horizontally and the culture plates placed directly on the cover glass. The parallel plate from a given line was kept in the dark. The light treatment was repeated for 3 days. Media was changed (with [A] or without [B] added Ce6-Tf ) each day, to maintain cell viability. On the fourth day, the cells were quantitated using a crystal violet stain assay: wells were drained and washed 4 times with 2 ml PBS; cells were fixed with 1 ml 5% v/v glutaraldehyde (in PBS) at 25° C. for 20 min.; wells were washed 4 times with 2 ml distilled water and stained with 1 ml of a 1:1 (v:v) mixture of 0.2% (w/v) crystal violet and 100 mM CAPS (pH 9.0). Wells were drained and washed 4 times with 2 ml distilled water. After drying, cell density was determined using a Bio-Rad Multiimager, where ODU/mm2 correlates with cell number.
Effect of Ce6 alone: To determine if Ce6 alone, if added in appropriate concentrations, would induce cell death. […]

[2] = system: Rat MTLn3 mammary adenocarcinoma cells; experiment: Low serum growth assay; format: cell-based; settings: αMEM 0.3% FBS, increasing levels of protein, four days
Experimental: FIG. 2. Effect of chorin e6 on the growth of Rat MTLn3 mammary adenocarcinoma cells. Cells were plated at 2,000 cells/well in 96 well plates in ∝MEM containing 5% FBS. One day after plating, media was changed to ∝MEM containing 0.3% FBS. Increasing levels of human holo-Tf (Native Tf) or human Ce6-Tf (both in PBS) were added to respective wells, in the amount indicated. Four days later, cells were quantitated using a crystal violet stain assay, where A590 correlates with cell number. A: an image of the crystal violet stained plate used in the assay is shown. B: A plot of the absorbances from A. Cell number and is seen to rise as the cells are exposed to increasing levels of native human Tf.
Growth assays: Rat MTLn3 mammary adenocarcinoma cells were plated at 2,000 cells/well in 96 well plates in ∝MEM containing 5% FBS. One day after plating, media was changed to ∝MEM containing 0.3% FBS. Increasing levels of human holo-Tf or human Ce6-Tf (both in PBS) were added to respective wells. Four days later, cells were quantitated using a crystal violet stain assay.

[3] = molecular target: T1, transferrin receptor (Rattus norvegicus, UniProt Q99376); experiment: Competition of FITC-Tf binding to cell surfaces (Western blot detection); settings: competitor 1 mg/ml, FITC-Tf 100 μg/ml, 4° C., 2 h
T1 construct: endogenous in cells; host or cells: Rat MTLn3 mammary adenocarcinoma cells (intact monolayers at 4 °C)
Experimental: FIG. 4. Competition of FITC-Tf binding to cell surfaces by Ce6-Tf. Transferrin solvent, human Ce6-Tf, or native human Tf were added to Rat MTLn3 mammary adenocarcinoma cell monolayers equilibrated to 4° C. The final concentration of both transferrins was 1 mg/ml. FITC- human Tf was then added to all wells at 100 μg/ml. After a 2 h incubation, cells were washed, lysed, electrophoresed, blotted, and examined for FITC content by incubation with anti-FITC and an HRP-conjugated second antibody, followed by ECL. A strong band at 70,000 Kd was seen from cell lysates which received FITC-Tf only (lanes 4 and 5), indicating FITC-Tf binding to the cells. […] Lanes 1-3 were loaded with known amounts of pure FITC-Tf, for standardization. An image of the ECL X-ray film is shown.
Competition binding: This measures the ability of a material to inhibit the binding of FITC-transferrin to cell surfaces. FITC-Tf bound to the cells is detected by Western blotting of cell lysates and specific antibody-based detection of FITC in those. Rat MTLn3 mammary adenocarcinoma cells were grown to confluence in 12 well plates using media consisting of ocMM containing 5% v/v fetal bovine serun (FBS). […] Lysate protein was determined using the BCA assay (Pierce Chemical). […] The blot was blocked and FITC-TF was detected by treatment with rabbit anti-FITC then with anti-rabbit IG-HRP followed by ECL using an HRP substrate.

[4] = system: Rat MTLn3 mammary adenocarcinoma cells; experiment: Cell killing assay, protocol A (serum-free, continuous exposure); format: cell-based; settings: 1.25 to 5.0 μg/ml
Experimental: FIG. 5. […] This was a continuous exposure, serum-free assay performed using protocol A described in the cell killing section. Cells were plated in 24 well plates and grown to confluency in ∝MEM containing 5% v/v FBS. On day one, media was changed to ∝MEM only and increasing levels of Ce6-Tf were added to test wells to a final concentration from 1.25 to 5.0 μg/ml. Native Tf was added to control wells at 5.0 μg/ml. On days 2, 3, and 4, cells were exposed to light from an X-ray film box for 15 min. Media and all Tf was changed each day. On day five, all cells were quantitated using the crystal violet stain assay. Images of the stained plates are shown in A. Stained cell numbers were evaluated using a Bio-Rad Multi-imager. The results of image analysis are shown in B, where ODU/mm2 correlates with cell number. […]
(§4) With both assay methods, two plates for each line to be tested were plated and treated identically. […] On the fourth day, the cells were quantitated using a crystal violet stain assay: wells were drained and washed 4 times with 2 ml PBS; cells were fixed with 1 ml 5% v/v glutaraldehyde (in PBS) at 25° C. for 20 min.; wells were washed 4 times with 2 ml distilled water and stained with 1 ml of a 1:1 (v:v) mixture of 0.2% (w/v) crystal violet and 100 mM CAPS (pH 9.0). […] After drying, cell density was determined using a Bio-Rad Multiimager, where ODU/mm2 correlates with cell number.

[5] = system: NRK cells; experiment: Cell killing assay, protocol B (serum-containing, one-day exposure); format: cell-based, rat
Experimental: as §1, §3, §4

[6] = system: Human MCF7 breast cancer cells; experiment: as above; format: cell-based; settings: MCF7, 7.5 to 30 ug/ml
Experimental: FIG. 7. […] Cells were plated in 24 well plates and grown to confluency. On day one, media was changed and increasing levels of Ce6-Tf were added to test wells to a final concentration from 7.5 to 30 ug/ml. Native Tf was added to control wells at 30 ug/ml. On day 2, media in all wells was changed to that without added Ce6-Tf or Tf On days 2, 3, and 4, cells were exposed to light from an X-ray film box for 15 min. Media was changed each day. On day five, all cells were fixed, stained, and quantitated using the crystal violet stain assay. Stained cell numbers were evaluated using a Bio-Rad Multi-imager. Images of the stained plates are shown in A. The results of image analysis are shown in B, where ODU/mm2 correlates with cell number. […]
as §4

[7] = system: MTLn3 cells; experiment: Transferrin competition of cell killing; format: cell-based, rat; settings: MTLn3, 30 ug/ml Ce6Tf plus 500 or 1,000 μg/ml native Tf, light
Experimental: as §2
Transferrin competition of cell killing: These were performed to ensure that Ce6-Tf's cell killing effect was due to the function of the transferrin ligand: that the light-induced killing effect could be neutralized with excess native Tf Method B. from above was used. Confluent cultures of MTLn3 cells in 24 well plates were treated with 30 ug/ml of Ce6Tf. […] Light-induced killing assays were continued and cells quantitated as stated above in method B.

T1 sequence (Q99376 whole entry): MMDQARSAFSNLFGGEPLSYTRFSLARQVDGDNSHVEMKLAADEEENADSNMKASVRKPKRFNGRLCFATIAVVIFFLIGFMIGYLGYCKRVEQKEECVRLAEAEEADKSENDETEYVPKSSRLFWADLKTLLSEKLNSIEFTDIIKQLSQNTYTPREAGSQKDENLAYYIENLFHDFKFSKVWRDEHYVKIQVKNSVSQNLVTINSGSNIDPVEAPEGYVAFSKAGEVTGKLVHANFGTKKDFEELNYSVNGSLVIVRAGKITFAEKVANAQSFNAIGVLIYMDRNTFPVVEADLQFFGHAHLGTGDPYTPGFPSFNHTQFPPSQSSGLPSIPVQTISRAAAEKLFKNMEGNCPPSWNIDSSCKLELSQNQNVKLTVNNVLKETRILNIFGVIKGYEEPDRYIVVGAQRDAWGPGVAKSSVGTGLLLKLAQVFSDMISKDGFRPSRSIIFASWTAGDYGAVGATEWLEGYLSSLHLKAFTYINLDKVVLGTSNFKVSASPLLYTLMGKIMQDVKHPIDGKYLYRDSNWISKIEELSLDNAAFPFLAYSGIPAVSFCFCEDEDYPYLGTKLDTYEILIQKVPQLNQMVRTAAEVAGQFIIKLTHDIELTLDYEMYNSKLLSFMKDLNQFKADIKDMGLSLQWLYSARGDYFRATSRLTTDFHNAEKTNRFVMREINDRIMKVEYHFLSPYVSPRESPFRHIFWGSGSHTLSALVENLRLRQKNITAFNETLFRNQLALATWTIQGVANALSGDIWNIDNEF

Substance	Cell killing effect of Ce6 alone with light ([1]; MTLn3, method B, free Ce6 4.3 uM (2.5 μg/ml), light 15 min on three days)	Effect on cell growth (cell number, crystal violet A590) [2]	Competition of FITC-Tf binding to cell surfaces [3]	Cell killing with light exposure (cell number, ODU/mm2) ([4]; light 15 min on days 2, 3, 4)	Cell numbers, plates kept in the dark ([4]; no light)	Change in cell numbers at the 15 ug/ml dose with light ([1]; MTLn3, 15 ug/ml, light)	Cell numbers, plates maintained in the dark ([1]; MTLn3, 7.5 to 30 ug/ml, no light)	Cell killing with light exposure (cell number, ODU/mm2) ([1]; MTLn3, 7.5 to 30 ug/ml, one-day exposure, light 15 min on days 2, 3, 4)	Light-induced cell death ([1]; initially present at 0.43 uM (30 ug/ml))	Change in cell numbers at the 15 ug/ml dose with light ([5]; 15 ug/ml, light)	Cell numbers, plates maintained in the dark ([5]; 7.5 to 30 ug/ml, no light)	Cell killing with light exposure (cell number, ODU/mm2) ([5]; 7.5 to 30 ug/ml, one-day exposure, light 15 min on days 2, 3, 4)	Cell numbers, plates kept in the dark ([6]; no light)	Cell killing with light exposure (cell number, ODU/mm2) ([6]; one-day exposure, light 15 min on days 2, 3, 4)	Killing effect of Ce6-Tf in presence of excess native Tf [7]
chlorin e6 [Ce6, reference compound]	no cell killing effect														
Native Tf: Un-conjugated iron-saturated human transferrin (Sigma Chemical), used as control		seen to rise	competed out the FITC-Tf												
chlorin e6-transferrin [Ce6-Tf]		similar, albeit slightly lower rise	competed out the FITC-Tf	light-dependent killing	no loss of cell numbers	showed a decrease in cell numbers	no loss of cell numbers	light-dependent killing	very active	did not	no loss of cell numbers	light-dependent killing	no loss of cell numbers	light-dependent killing	diminished the killing effect
